Assay results from ChEMBL document CHEMBL3886728, “Dihydrobenzoxazine and tetrahydroquinoxaline sodium channel inhibitors” (2016).

Legend:
[1] = target: T1, Sodium channel protein type 9 subunit alpha (Homo sapiens, UniProt Q15858); experiment: In Vitro Assay: HEK 293 cells stably transfected with either Nav 1.7 or with Nav 1.5 were recorded in population patch-clamp mode with the IonWorks® Quattro automated electrophysiology system in accordance with the manufacturer's specifications (Molecular Devices, LLC, Sunnyvale, Calif.). Sodium channel currents were measured in response to a train of depolarizations that induced successively greater inactivation. Cells were held at −110 mV for three seconds (Nav 1.7) or half a second (Nav 1.5) from a holding voltage of −15 mV, then put through a series of 26 pulses of 150 msec duration to −20 mV at a frequency of 5 Hz. Cells were then left unclamped for a period of 3 to 8 minutes while a single concentration of test compound was added. Cells were then reclamped and put through the same voltage protocol. Current at the end of the 26th pulse to −20 mV was subtracted from the peak current evoked by the 26th pulse to −20 mV to correct for leak current.; assay type: cell-based
[2] = target: T1, Sodium channel protein type 9 subunit alpha; experiment: In Vitro PX Assay: HEK 293 cells stably transfected with human Nav1.7 were recorded in whole cell voltage clamp mode with the PatchXpress automated electrophysiology system (Molecular Devices, LLC, Sunnyvale, Calif.). Compound effects were measured on a partially inactivated state of the sodium channel. Cells were clamped to a holding potential yielding 20 to 50% inactivation. To elicit sodium current, channels were activated by pulsing to −10 mV for 20 msec. This voltage protocol was repeated at a rate of 0.1 Hz throughout the experiment. A single concentration of test compound was applied to cells for a duration of 3 minutes.; assay type: cell-based

T1 sequence (Q15858 whole entry): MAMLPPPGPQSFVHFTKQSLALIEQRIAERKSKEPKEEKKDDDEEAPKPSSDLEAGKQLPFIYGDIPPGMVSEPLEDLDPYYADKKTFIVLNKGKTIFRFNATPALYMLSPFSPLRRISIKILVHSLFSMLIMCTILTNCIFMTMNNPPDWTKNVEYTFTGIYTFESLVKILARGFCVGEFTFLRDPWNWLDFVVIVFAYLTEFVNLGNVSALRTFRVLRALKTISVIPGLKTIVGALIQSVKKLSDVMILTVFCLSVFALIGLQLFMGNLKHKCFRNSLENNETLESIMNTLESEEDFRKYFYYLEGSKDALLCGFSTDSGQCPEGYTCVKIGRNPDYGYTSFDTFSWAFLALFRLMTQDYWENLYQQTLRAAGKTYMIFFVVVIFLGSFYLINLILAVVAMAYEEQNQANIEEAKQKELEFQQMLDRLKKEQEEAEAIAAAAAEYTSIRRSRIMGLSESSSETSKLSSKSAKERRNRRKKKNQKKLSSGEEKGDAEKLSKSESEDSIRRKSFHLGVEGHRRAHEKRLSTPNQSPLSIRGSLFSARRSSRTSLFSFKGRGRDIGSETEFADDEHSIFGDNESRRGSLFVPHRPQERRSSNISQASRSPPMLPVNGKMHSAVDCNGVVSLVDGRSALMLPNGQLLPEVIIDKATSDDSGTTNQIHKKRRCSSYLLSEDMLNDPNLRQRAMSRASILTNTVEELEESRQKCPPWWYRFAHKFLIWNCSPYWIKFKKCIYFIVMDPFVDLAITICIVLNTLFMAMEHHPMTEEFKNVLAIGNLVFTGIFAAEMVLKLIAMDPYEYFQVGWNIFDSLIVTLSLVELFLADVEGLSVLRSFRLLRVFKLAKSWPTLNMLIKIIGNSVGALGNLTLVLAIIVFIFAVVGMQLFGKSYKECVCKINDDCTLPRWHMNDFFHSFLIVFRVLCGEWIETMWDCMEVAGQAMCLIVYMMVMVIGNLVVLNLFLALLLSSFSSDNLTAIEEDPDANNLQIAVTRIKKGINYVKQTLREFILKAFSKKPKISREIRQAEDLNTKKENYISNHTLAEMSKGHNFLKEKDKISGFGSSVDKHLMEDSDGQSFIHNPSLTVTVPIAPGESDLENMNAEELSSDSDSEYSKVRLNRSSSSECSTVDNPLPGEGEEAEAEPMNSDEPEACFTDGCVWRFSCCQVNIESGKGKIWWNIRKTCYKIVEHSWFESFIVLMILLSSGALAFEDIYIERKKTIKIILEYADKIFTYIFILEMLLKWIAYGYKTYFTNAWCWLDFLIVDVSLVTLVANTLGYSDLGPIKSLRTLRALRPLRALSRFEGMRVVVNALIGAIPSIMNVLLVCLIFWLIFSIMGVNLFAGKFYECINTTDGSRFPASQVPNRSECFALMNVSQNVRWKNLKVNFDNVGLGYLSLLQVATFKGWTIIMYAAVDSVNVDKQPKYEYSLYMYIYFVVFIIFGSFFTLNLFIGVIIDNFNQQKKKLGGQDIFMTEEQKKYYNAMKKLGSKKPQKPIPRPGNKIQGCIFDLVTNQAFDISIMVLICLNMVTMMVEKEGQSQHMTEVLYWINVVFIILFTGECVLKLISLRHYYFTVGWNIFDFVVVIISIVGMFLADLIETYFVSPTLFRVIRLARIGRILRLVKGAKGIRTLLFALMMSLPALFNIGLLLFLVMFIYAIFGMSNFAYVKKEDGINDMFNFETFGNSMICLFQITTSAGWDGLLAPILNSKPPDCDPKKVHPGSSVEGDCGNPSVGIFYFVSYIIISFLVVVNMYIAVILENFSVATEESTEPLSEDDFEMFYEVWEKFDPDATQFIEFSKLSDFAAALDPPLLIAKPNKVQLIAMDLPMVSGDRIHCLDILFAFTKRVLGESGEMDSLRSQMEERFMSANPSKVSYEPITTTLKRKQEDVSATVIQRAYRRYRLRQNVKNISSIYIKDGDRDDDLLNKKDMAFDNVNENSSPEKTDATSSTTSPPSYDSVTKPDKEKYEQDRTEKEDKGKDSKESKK

IC50 [2] [µM] | SMILES | IC50 [1] [µM]
2.85 | CCOc1cccc(N2CCOc3cc(S(=O)(=O)Nc4nccs4)ccc32)c1 | 0.742
8.02 | O=S(=O)(Nc1nccs1)c1ccc2c(c1)OCCN2c1ccccc1C(F)(F)F | 1.66
1.82 | O=S(=O)(Nc1nccs1)c1ccc2c(c1)OCCN2c1ccc(F)cc1F | 0.191
0.961 | O=S(=O)(Nc1nccs1)c1ccc2c(c1)OCCN2c1cccc(Cl)c1Cl | 0.274
0.416 | Cc1c(Cl)cccc1N1CCOc2cc(S(=O)(=O)Nc3nccs3)ccc21 | 0.601
0.364 | CN1CC=C(c2cc(C(F)(F)F)ccc2N2CCOc3cc(S(=O)(=O)Nc4ccncn4)ccc32)CC1 | 0.0045
7.1 | O=C1CCCc2ccc(N3CCOc4cc(S(=O)(=O)Nc5nccs5)ccc43)cc21 | 1.1
13.8 | COc1ccc(N2CCOc3cc(S(=O)(=O)Nc4nccs4)ccc32)c(C#N)c1 | 2.69
2.37 | Cc1cc(N2CCOc3cc(S(=O)(=O)Nc4nccs4)ccc32)cc(C)c1N(C)C | 0.808
4.5 | O=S(=O)(Nc1nccs1)c1ccc2c(c1)OCCN2c1ncc(Cl)cc1Cl | 0.397
0.306 | CC(C)(C)OC(=O)N1CC=C(c2cc(C(F)(F)F)ccc2N2CCOc3cc(S(=O)(=O)Nc4ncns4)ccc32)CC1 | 0.0818
 | Cc1ccc(N2CCOc3cc(S(=O)(=O)Nc4nccs4)ccc32)cc1F | 7.37
1.55 | Cc1ccc(N2CCOc3cc(S(=O)(=O)Nc4nccs4)ccc32)cc1Cl | 0.733
5.76 | O=S(=O)(Nc1nccs1)c1ccc2c(c1)OCCN2c1cccc2scnc12 | 3.76
1.11 | O=S(=O)(Nc1nccs1)c1ccc2c(c1)OCCN2c1cc(F)ccc1F | 0.114
3.19 | N#Cc1ccc(F)c(N2CCOc3cc(S(=O)(=O)Nc4nccs4)ccc32)c1 | 0.727
13.7 | O=S(=O)(Nc1nccs1)c1ccc2c(c1)OCCN2c1ccc(-n2ccnc2)cc1 | 2.69

SMILES | IC50 [2] [µM] | IC50 [1] [µM]
COc1cc(C#N)ccc1N1CCOc2cc(S(=O)(=O)Nc3ccncn3)ccc21 | 0.91 | 
COc1cccc(N2CCOc3cc(S(=O)(=O)Nc4nccs4)ccc32)c1 | 2.07 | 0.141
